Article PMC9403976, “Elucidating the path to Plasmodium prolyl-tRNA synthetase inhibitors that overcome halofuginone resistance” (Nature Communications, 2022)
Values joined by “and” are separate entries in the source; they are usually repeats but may differ in a detail not shown here. Equal entries are not always repeated. Where two headings read alike, the source gives them in different places.

Legend:
PfcProRS = molecular target: T1, PfcProRS (Plasmodium falciparum, UniProt Q8I5R7); format: binding; conditions: for dose-response signal (normalized), SI Fig 8: single replicates
T1 construct: made in house; host or cells: E. coli SoluBL-21

P. falciparum Dd2-2D4 = assay: P. falciparum asexual blood stage (ABS) growth assay, SYBR Green, 72 h, wild-type parasites; format: cell-based, Plasmodium falciparum; conditions: wildtype (Dd2-2D4); 20 μM
HsProRS = HsProRS (Homo sapiens, UniProt P07814); assay: TR-FRET ligand displacement assay with tracer MAT379 (CoraFluor-1-Halo and anti-His6 antibody formats); format: binding; design: made in house; host or cells: E. coli SoluBL-21; conditions: for TR-FRET dose-response, normalized signal (SI Fig 11): individual replicates
Chain of HsProRS (P07814 996-1512): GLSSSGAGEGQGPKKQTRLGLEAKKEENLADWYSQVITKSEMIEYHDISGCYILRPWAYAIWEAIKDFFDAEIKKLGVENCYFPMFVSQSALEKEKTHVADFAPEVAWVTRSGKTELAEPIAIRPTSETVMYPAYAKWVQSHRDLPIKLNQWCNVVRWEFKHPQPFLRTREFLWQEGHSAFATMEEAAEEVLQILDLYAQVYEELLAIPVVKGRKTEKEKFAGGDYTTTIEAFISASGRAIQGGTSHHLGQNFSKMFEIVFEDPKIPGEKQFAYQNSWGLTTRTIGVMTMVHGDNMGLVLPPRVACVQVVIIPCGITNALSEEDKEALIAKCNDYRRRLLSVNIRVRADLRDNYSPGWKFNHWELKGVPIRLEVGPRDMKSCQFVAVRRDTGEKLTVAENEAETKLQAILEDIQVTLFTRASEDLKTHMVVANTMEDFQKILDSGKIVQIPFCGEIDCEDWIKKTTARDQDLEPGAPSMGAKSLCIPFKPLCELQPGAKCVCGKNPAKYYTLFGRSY

T1 sequence (Q8I5R7 249-746): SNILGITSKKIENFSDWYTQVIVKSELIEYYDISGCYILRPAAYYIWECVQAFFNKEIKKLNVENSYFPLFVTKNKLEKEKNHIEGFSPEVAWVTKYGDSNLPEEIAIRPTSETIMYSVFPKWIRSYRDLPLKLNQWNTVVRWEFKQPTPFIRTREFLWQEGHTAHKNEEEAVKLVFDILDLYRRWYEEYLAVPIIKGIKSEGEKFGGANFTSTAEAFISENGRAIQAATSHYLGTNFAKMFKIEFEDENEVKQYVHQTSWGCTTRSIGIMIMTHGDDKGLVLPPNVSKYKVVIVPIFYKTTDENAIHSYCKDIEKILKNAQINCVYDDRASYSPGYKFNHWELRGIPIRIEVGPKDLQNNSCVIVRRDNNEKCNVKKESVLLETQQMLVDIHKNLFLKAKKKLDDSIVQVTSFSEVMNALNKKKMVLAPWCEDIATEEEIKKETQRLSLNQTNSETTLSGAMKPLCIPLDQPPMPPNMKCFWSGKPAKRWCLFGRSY

O=C(NC1Cc2ccccc2C1)c1nccnc1NC(=O)C1CCOCC1 [compound 18]
dose-response signal (normalized), SI Fig 8 (PfcProRS; Log[inhibitor] (M) -5.000): 3.01E-01 and 4.11E-01 and 4.27E-01
dose-response signal (normalized), SI Fig 8 (PfcProRS; Log[inhibitor] (M) -5.301): 6.53E-01 and 6.16E-01 and 6.73E-01
dose-response signal (normalized), SI Fig 8 (PfcProRS; Log[inhibitor] (M) -5.601): 8.02E-01 and 8.42E-01 and 8.63E-01
dose-response signal (normalized), SI Fig 8 (PfcProRS; Log[inhibitor] (M) -5.904): 1.01E+00 and 1.00E+00 and 9.12E-01
dose-response signal (normalized), SI Fig 8 (PfcProRS; Log[inhibitor] (M) -6.208): 1.03E+00 and 1.00E+00 and 9.60E-01
dose-response signal (normalized), SI Fig 8 (PfcProRS; Log[inhibitor] (M) -6.509): 1.16E+00 and 9.38E-01 and 1.04E+00
dose-response signal (normalized), SI Fig 8 (PfcProRS; Log[inhibitor] (M) -6.796): 9.96E-01 and 9.92E-01 and 1.04E+00
dose-response signal (normalized), SI Fig 8 (PfcProRS; Log[inhibitor] (M) -7.108): 1.02E+00 and 9.74E-01 and 9.75E-01
dose-response signal (normalized), SI Fig 8 (PfcProRS; Log[inhibitor] (M) -7.409): 1.01E+00 (2×) and 1.08E+00
dose-response signal (normalized), SI Fig 8 (PfcProRS; Log[inhibitor] (M) -7.710): 9.82E-01 and 1.05E+00 and 9.42E-01
dose-response signal (normalized), SI Fig 8 (PfcProRS; Log[inhibitor] (M) -8.000): 1.03E+00 and 1.10E+00 and 9.98E-01
dose-response signal (normalized), SI Fig 8 (PfcProRS; Log[inhibitor] (M) -8.301): 9.51E-01 and 1.13E+00 and 9.71E-01
dose-response signal (normalized), SI Fig 8 (PfcProRS; Log[inhibitor] (M) -8.602): 1.03E+00 and 9.75E-01 and 1.04E+00
dose-response signal (normalized), SI Fig 8 (PfcProRS; Log[inhibitor] (M) -9.000): 9.05E-01 and 1.01E+00 and 9.83E-01
dose-response signal (normalized), SI Fig 8 (PfcProRS; Log[inhibitor] (M) -9.301): 9.17E-01 and 9.20E-01 and 9.09E-01
PfcProRS -- best Kd (PfcProRS; SI Fig 16a, values on -log scale): 5.799
% signal at 20 μM, wildtype (Dd2-2D4) (P. falciparum Dd2-2D4): 108%
Kd (HsProRS; HsProRS (KD [nM]) mean, no added proline/ATP (-)): 7400 nM
Kd (HsProRS; HsProRS - best Kd, SI Fig 16a, values on -log scale): 225 nM
normalized TR-FRET ligand displacement signal, dose-response replicates (SI Fig 6) (HsProRS; Log[inhibitor] (M) -5.000): 6.96E-01 and 5.92E-01 and 5.43E-01
TR-FRET dose-response, normalized signal (SI Fig 11) (HsProRS; Log[inhibitor] (M) -5.000): 4.20E-01 and 4.17E-01 and 4.61E-01
normalized TR-FRET ligand displacement signal, dose-response replicates (SI Fig 6) (HsProRS; Log[inhibitor] (M) -5.301): 8.37E-01 and 8.70E-01 and 8.44E-01
TR-FRET dose-response, normalized signal (SI Fig 11) (HsProRS; Log[inhibitor] (M) -5.301): 6.08E-01 and 6.33E-01 and 6.32E-01
normalized TR-FRET ligand displacement signal, dose-response replicates (SI Fig 6) (HsProRS; Log[inhibitor] (M) -5.601): 9.23E-01 and 9.21E-01 and 9.37E-01
TR-FRET dose-response, normalized signal (SI Fig 11) (HsProRS; Log[inhibitor] (M) -5.601): 7.60E-01 and 7.57E-01 and 7.53E-01
normalized TR-FRET ligand displacement signal, dose-response replicates (SI Fig 6) (HsProRS; Log[inhibitor] (M) -5.904): 9.48E-01 and 1.01E+00 and 1.07E+00
TR-FRET dose-response, normalized signal (SI Fig 11) (HsProRS; Log[inhibitor] (M) -5.904): 8.33E-01 and 8.64E-01 and 8.38E-01
normalized TR-FRET ligand displacement signal, dose-response replicates (SI Fig 6) (HsProRS; Log[inhibitor] (M) -6.208): 1.06E+00 (2×) and 1.00E+00
TR-FRET dose-response, normalized signal (SI Fig 11) (HsProRS; Log[inhibitor] (M) -6.208): 8.52E-01 and 9.04E-01 and 9.21E-01
normalized TR-FRET ligand displacement signal, dose-response replicates (SI Fig 6) (HsProRS; Log[inhibitor] (M) -6.509): 1.01E+00 and 1.02E+00 and 9.62E-01
TR-FRET dose-response, normalized signal (SI Fig 11) (HsProRS; Log[inhibitor] (M) -6.509): 9.56E-01 and 9.24E-01 and 9.57E-01
normalized TR-FRET ligand displacement signal, dose-response replicates (SI Fig 6) (HsProRS; Log[inhibitor] (M) -6.796): 9.72E-01 and 9.92E-01 and 1.02E+00
TR-FRET dose-response, normalized signal (SI Fig 11) (HsProRS; Log[inhibitor] (M) -6.796): 9.31E-01 (2×) and 9.72E-01
normalized TR-FRET ligand displacement signal, dose-response replicates (SI Fig 6) (HsProRS; Log[inhibitor] (M) -7.108): 9.59E-01 and 8.74E-01 and 9.90E-01
TR-FRET dose-response, normalized signal (SI Fig 11) (HsProRS; Log[inhibitor] (M) -7.108): 9.27E-01 and 9.12E-01 and 9.11E-01
normalized TR-FRET ligand displacement signal, dose-response replicates (SI Fig 6) (HsProRS; Log[inhibitor] (M) -7.409): 9.78E-01 and 1.02E+00 and 1.05E+00
TR-FRET dose-response, normalized signal (SI Fig 11) (HsProRS; Log[inhibitor] (M) -7.409): 9.66E-01 (2×) and 9.82E-01
normalized TR-FRET ligand displacement signal, dose-response replicates (SI Fig 6) (HsProRS; Log[inhibitor] (M) -7.710): 9.30E-01 and 1.05E+00 and 1.11E+00
TR-FRET dose-response, normalized signal (SI Fig 11) (HsProRS; Log[inhibitor] (M) -7.710): 9.81E-01 and 9.38E-01 and 9.42E-01
normalized TR-FRET ligand displacement signal, dose-response replicates (SI Fig 6) (HsProRS; Log[inhibitor] (M) -8.000): 9.51E-01 and 9.79E-01 and 1.05E+00
TR-FRET dose-response, normalized signal (SI Fig 11) (HsProRS; Log[inhibitor] (M) -8.000): 9.53E-01 and 9.52E-01 and 9.49E-01
normalized TR-FRET ligand displacement signal, dose-response replicates (SI Fig 6) (HsProRS; Log[inhibitor] (M) -8.301): 9.09E-01 and 9.22E-01 and 9.59E-01
TR-FRET dose-response, normalized signal (SI Fig 11) (HsProRS; Log[inhibitor] (M) -8.301): 9.20E-01 and 1.00E+00 and 8.97E-01
normalized TR-FRET ligand displacement signal, dose-response replicates (SI Fig 6) (HsProRS; Log[inhibitor] (M) -8.602): 9.55E-01 and 9.72E-01 and 1.02E+00
TR-FRET dose-response, normalized signal (SI Fig 11) (HsProRS; Log[inhibitor] (M) -8.602): 9.41E-01 and 9.60E-01 and 9.87E-01
normalized TR-FRET ligand displacement signal, dose-response replicates (SI Fig 6) (HsProRS; Log[inhibitor] (M) -9.000): 9.17E-01 and 1.01E+00 and 9.46E-01
TR-FRET dose-response, normalized signal (SI Fig 11) (HsProRS; Log[inhibitor] (M) -9.000): 9.26E-01 and 9.53E-01 and 9.30E-01
normalized TR-FRET ligand displacement signal, dose-response replicates (SI Fig 6) (HsProRS; Log[inhibitor] (M) -9.301): 9.60E-01 and 1.07E+00 and 9.73E-01
TR-FRET dose-response, normalized signal (SI Fig 11) (HsProRS; Log[inhibitor] (M) -9.301): 9.44E-01 and 9.56E-01 and 9.33E-01
